Source: ChEMBL document CHEMBL1143298, “Second generation 4-(4-methyl-1H-indol-5-ylamino)-2-phenylthieno[2,3-b]pyridine-5-carbonitrile PKCtheta inhibitors” (Bioorg Med Chem Lett, 2009)
≈ marks a conversion by molar mass, not a printed value.

Legend:
[1] = target: Tyrosine-protein kinase Lyn (Homo sapiens, UniProt P07948); assay: Inhibition of Lyn
[2] = target: Protein kinase C delta type (Homo sapiens, UniProt Q05655); assay: Inhibition of human full length PKCdelta
[3] = target: Protein kinase C beta type (Homo sapiens, UniProt P05771); assay: Inhibition of human full length PKCbeta
Chain of Protein kinase C beta type (P05771 whole entry): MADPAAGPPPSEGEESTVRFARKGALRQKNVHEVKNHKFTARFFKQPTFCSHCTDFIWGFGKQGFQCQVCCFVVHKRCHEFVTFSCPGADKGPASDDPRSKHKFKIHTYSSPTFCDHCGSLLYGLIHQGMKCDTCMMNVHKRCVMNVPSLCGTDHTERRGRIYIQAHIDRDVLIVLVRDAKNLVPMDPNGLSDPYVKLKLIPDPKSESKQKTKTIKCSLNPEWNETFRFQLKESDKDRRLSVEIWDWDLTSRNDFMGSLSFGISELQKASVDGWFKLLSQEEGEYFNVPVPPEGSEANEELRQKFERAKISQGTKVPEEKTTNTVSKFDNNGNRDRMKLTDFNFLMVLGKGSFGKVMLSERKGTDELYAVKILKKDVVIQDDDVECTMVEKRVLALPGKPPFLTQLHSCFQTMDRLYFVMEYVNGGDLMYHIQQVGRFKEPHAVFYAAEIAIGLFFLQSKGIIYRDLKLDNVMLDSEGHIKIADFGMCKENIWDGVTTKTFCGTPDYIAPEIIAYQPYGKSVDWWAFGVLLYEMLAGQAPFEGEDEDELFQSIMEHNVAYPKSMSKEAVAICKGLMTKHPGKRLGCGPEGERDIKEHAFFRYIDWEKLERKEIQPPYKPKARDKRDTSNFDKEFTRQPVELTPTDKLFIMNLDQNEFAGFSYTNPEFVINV

[4] = target: Protein kinase C eta type (Homo sapiens, UniProt P24723); assay: Inhibition of human full length PKCeta
Chain of Protein kinase C eta type (P24723 whole entry): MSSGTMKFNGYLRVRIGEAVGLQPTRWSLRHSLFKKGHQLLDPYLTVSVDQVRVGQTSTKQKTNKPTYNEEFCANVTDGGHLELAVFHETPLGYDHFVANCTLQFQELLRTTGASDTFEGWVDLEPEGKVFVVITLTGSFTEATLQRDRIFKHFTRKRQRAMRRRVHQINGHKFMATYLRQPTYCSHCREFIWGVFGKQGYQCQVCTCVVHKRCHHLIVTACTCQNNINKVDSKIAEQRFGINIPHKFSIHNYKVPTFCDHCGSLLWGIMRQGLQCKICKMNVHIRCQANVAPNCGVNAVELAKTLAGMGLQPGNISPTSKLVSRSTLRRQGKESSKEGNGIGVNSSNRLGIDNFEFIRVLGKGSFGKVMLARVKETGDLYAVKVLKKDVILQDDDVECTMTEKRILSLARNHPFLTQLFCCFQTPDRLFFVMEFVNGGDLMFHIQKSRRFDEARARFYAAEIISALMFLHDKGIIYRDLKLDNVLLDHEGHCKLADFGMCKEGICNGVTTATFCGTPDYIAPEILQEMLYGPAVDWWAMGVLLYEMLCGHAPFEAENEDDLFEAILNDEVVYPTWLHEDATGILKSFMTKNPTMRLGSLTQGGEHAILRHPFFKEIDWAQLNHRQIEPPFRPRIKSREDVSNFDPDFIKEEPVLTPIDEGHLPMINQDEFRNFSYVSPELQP

[5] = target: T1, Protein kinase C epsilon type (Homo sapiens, UniProt Q02156); assay: Inhibition of human full length PKCepsilon
T1 sequence (Q02156 whole entry): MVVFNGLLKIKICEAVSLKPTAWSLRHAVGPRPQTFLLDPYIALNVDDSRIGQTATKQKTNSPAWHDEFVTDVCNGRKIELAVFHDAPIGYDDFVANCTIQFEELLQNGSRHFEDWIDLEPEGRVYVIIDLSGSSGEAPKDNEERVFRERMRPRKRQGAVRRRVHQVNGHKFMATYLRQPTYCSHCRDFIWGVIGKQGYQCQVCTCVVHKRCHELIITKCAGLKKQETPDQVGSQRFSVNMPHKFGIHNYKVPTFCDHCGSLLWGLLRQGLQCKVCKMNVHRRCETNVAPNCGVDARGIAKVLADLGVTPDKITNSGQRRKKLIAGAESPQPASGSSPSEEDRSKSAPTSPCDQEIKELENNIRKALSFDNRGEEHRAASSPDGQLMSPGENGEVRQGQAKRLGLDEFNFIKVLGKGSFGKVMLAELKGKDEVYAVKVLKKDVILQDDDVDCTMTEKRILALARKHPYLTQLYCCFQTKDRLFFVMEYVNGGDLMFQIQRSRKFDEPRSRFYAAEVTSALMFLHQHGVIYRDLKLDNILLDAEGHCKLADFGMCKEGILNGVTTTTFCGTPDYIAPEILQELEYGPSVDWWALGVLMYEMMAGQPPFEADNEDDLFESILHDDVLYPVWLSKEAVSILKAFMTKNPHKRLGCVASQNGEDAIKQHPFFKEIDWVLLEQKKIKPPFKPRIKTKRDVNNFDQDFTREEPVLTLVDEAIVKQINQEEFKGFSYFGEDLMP

[6] = target: Proto-oncogene tyrosine-protein kinase Src (Homo sapiens, UniProt P12931); assay: Inhibition of Src
Chain of Proto-oncogene tyrosine-protein kinase Src (P12931 2-536 limits assumed): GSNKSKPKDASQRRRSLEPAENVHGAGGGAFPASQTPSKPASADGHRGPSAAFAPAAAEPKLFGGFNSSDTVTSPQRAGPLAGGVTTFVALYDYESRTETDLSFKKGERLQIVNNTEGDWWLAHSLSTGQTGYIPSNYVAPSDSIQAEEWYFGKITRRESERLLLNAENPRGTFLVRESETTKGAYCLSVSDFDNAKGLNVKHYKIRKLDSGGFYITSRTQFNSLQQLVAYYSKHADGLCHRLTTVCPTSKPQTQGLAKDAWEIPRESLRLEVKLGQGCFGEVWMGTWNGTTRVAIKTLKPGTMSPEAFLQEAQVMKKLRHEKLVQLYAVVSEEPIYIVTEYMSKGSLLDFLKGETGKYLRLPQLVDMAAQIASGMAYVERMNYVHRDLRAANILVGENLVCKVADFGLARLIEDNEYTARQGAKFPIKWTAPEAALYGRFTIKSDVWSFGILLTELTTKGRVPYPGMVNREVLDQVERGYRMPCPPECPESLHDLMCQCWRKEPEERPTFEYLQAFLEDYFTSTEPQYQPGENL

[7] = target: Tyrosine-protein kinase HCK (Homo sapiens, UniProt P08631); assay: Inhibition of Hck
Chain of Tyrosine-protein kinase HCK (P08631 whole entry): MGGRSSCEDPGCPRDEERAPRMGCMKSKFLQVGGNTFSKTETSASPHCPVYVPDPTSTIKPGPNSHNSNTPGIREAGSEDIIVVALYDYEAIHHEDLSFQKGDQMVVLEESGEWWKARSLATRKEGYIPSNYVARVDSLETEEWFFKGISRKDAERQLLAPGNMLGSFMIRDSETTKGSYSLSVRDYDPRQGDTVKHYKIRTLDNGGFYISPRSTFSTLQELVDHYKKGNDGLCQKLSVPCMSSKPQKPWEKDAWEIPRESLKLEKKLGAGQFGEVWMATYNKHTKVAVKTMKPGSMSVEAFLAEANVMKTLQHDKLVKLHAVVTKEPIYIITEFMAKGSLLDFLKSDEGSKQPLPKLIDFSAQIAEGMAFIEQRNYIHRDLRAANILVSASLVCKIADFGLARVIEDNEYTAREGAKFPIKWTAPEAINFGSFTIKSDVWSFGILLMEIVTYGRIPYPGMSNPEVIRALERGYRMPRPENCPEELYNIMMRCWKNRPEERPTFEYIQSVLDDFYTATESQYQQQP

[8] = target: Tyrosine-protein kinase Fyn (Homo sapiens, UniProt P06241); assay: Inhibition of Fyn
[9] = Inhibition of VEGFR
[10] = Inhibition of PDGFR
[11] = target: MAP kinase-activated protein kinase 2 (Homo sapiens, UniProt P49137); assay: Inhibition of MK2
[12] = Inhibition of p38
[13] = Membrane permeability by PAMPA; assay type: ADME; details: read-out: permeability
[14] = Solubility at pH 7.4; assay type: physicochemical; details: buffer
[15] = Metabolic stability in mouse liver microsomes; assay type: ADME, Microsome
[16] = Metabolic stability in rat liver microsomes; assay type: ADME, Microsome
[17] = Metabolic stability in human liver microsomes; assay type: ADME, Microsome
[18] = target: Protein kinase C theta type (Homo sapiens, UniProt Q04759); assay: Inhibition of human full length PKCtheta
Chain of Protein kinase C theta type (Q04759 whole entry): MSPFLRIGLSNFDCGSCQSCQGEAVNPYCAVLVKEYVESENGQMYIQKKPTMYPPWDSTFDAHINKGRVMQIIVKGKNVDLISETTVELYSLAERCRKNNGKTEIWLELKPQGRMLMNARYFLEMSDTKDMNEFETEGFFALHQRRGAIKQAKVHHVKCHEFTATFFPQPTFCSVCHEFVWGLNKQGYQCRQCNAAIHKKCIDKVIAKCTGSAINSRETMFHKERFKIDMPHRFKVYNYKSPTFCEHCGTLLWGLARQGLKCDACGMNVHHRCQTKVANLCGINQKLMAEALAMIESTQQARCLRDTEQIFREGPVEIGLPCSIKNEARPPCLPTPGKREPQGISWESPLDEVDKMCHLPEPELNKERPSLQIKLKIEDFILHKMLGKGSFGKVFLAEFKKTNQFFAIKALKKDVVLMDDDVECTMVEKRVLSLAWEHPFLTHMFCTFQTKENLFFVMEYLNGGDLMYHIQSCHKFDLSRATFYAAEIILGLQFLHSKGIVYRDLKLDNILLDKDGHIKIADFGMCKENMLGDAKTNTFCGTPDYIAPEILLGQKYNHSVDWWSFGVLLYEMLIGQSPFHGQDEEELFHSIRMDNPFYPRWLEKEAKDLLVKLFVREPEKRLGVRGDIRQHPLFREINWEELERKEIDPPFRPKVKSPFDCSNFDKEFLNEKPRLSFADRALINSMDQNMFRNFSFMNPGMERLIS

Homo sapiens = species: Homo sapiens; assay: Selectivity ratio of IC50 for human full length PKCdelta to IC50 for human full length PKCtheta
[19] = target: Tyrosine-protein kinase Lck (Homo sapiens, UniProt P06239)
Chain of Tyrosine-protein kinase Lck (P06239 whole entry): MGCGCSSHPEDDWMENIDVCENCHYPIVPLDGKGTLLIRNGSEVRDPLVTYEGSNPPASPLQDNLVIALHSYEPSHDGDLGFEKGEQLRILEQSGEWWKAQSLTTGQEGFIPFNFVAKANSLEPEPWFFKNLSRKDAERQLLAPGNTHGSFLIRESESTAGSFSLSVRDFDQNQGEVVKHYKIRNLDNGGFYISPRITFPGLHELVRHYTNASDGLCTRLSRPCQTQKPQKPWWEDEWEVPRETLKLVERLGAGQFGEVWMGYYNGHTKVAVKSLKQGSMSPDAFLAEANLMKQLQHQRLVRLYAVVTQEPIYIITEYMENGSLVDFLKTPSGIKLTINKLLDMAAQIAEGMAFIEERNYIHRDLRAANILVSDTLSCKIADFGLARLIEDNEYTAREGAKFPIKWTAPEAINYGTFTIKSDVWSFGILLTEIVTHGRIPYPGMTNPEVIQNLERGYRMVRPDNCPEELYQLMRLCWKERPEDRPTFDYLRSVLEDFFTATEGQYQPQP

Chain of Tyrosine-protein kinase Lyn (P07948 whole entry): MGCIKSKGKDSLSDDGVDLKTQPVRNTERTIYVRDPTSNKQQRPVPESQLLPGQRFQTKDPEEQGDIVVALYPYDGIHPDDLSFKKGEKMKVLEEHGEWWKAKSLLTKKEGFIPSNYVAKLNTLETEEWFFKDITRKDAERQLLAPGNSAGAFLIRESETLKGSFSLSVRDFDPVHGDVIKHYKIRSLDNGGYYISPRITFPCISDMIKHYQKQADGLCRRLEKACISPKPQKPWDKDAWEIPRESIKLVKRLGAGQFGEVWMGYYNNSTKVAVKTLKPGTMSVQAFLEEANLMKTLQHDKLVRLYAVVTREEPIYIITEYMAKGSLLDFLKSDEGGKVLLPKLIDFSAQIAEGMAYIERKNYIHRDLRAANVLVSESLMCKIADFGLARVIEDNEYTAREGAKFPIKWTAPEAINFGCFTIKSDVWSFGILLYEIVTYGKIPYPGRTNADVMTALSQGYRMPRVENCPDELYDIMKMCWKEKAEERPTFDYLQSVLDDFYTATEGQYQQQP
Chain of Protein kinase C delta type (Q05655 whole entry): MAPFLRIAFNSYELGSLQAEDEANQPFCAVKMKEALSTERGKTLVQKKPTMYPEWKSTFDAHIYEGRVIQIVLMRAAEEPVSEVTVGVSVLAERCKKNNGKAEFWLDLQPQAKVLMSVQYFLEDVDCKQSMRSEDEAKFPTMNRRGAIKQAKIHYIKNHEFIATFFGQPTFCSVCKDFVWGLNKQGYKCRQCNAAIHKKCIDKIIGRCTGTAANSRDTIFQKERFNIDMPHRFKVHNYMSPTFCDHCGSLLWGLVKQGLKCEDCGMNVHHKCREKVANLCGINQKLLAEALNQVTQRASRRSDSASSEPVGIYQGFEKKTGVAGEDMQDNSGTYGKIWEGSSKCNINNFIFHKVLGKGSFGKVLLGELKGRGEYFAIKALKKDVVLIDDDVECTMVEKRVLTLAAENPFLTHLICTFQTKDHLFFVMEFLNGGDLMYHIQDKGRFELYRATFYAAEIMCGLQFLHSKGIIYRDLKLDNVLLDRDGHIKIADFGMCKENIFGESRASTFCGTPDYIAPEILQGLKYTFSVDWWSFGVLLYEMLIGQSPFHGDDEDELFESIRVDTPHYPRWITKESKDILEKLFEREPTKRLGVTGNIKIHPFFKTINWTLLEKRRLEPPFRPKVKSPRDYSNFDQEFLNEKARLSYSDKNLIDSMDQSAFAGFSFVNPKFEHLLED

Row | Compound | IC50 [1] | IC50 [2] | IC50 [18] | Ratio IC50 (Homo sapiens) | other results
1 | COc1ccc(CN(C)C)c(-c2cc3c(Nc4ccc5[nH]ccc5c4C)c(C#N)cnc3s2)c1 | 13000 nM | 130 nM | – | – | IC50 [3]: 22000 nM; IC50 [4]: 360 nM; IC50 [5]: 95 nM; IC50 [6]: > 5000 nM; IC50 [7]: > 5000 nM; IC50 [8]: > 5000 nM; IC50 [9]: > 5000 nM; IC50 [10]: > 5000 nM; IC50 [11]: > 5000 nM; IC50 [12]: > 5000 nM; Papp [13]: 1.04 ×10⁻⁶ cm/s; solubility [14]: 12 µg/mL (≈ 25.7 µM); half-life [15]: < 10 min; half-life [16]: < 10 min; half-life [17]: < 10 min
2 | N#Cc1cnc2sc(-c3ccccc3)cc2c1Nc1ccc2[nH]ccc2c1 | – | – | 52 nM | – | –
3 | Cc1c(Nc2c(C#N)cnc3sc(-c4cccc(CN(C)C)c4)cc23)ccc2[nH]ccc12 | 520 nM | – | – | 4 | –
4 | Cc1c(Nc2c(C#N)cnc3sc(-c4cncc(CN(C)C)c4)cc23)ccc2[nH]ccc12 | 2200 nM | 170 nM | 84 nM | – | –
5 | COc1c(CN(C)C)cccc1-c1cc2c(Nc3ccc4[nH]ccc4c3C)c(C#N)cnc2s1 | 1700 nM | 27 nM | – | 2 | –
6 | Cc1c(Nc2c(C#N)cnc3sc(-c4ccccc4CN(C)C)cc23)ccc2[nH]ccc12 | 37000 nM | 380 nM | – | – | –
7 | COc1ccc(CN(C)C)cc1-c1cc2c(Nc3ccc4[nH]ccc4c3C)c(C#N)cnc2s1 | 23 nM | 24 nM | 8.7 nM | – | IC50 [19]: 6 nM

Continued, in another order:

Row | IC50 [1] | IC50 [2] | IC50 [18] | Ratio IC50 (Homo sapiens) | Compound | other results
8 | 100 nM | 88 nM | – | – | Cc1c(Nc2c(C#N)cnc3sc(-c4ccc(CN(C)C)cc4)cc23)ccc2[nH]ccc12 | –
9 | 410 nM | 51 nM | – | – | Cc1c(Nc2c(C#N)cnc3sc(-c4csc(CN(C)C)c4)cc23)ccc2[nH]ccc12 | –
10 | 310 nM | 250 nM | 23 nM | 10 | COc1ccccc1-c1cc2c(Nc3ccc4[nH]ccc4c3C)c(C#N)cnc2s1 | –
11 | 74 nM | 82 nM | 9.2 nM | 9 | CCOc1ccc(CN(C)C)cc1-c1cc2c(Nc3ccc4[nH]ccc4c3C)c(C#N)cnc2s1 | –
12 | 230 nM | 410 nM | – | 4 | Cc1ccc(CN(C)C)cc1-c1cc2c(Nc3ccc4[nH]ccc4c3C)c(C#N)cnc2s1 | –
